Values quoted from earlier work in US20240365792A1, “Pest Control Formulations and Uses Thereof” (priority 2021, published 2024).

Experiments:
[1] = direct application to the skin
[2] = molecular target: acetylcholinesterase (Homo sapiens, UniProt P22303); conditions: in humans
[3] = test system: insects; conditions: compared with DEET
[4] = test system: salamander larvae; conditions: in vivo

Sequence of acetylcholinesterase (P22303 32-614): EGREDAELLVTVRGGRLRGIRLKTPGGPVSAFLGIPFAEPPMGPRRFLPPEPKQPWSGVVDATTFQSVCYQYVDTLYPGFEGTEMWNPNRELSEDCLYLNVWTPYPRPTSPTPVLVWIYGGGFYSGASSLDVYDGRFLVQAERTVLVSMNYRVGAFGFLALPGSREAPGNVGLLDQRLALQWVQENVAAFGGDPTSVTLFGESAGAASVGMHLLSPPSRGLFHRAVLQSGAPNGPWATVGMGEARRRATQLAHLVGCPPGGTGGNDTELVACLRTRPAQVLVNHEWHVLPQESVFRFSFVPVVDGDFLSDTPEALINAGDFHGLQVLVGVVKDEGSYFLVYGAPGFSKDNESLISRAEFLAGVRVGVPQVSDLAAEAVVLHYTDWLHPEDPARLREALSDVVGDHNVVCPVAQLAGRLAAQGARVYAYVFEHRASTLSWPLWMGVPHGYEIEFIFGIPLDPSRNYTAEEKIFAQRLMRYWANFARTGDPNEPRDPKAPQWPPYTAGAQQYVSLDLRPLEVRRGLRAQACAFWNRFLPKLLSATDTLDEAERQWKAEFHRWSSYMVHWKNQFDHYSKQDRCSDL

Row | Structure (SMILES) | irritancy [1] | inhibition of acetylcholinesterase [2] | effectiveness at repelling insects [3] | toxicity to salamander larvae [4]
1 | CCN(CC)C(=O)c1cccc(C)c1 [DEET, N,N-diethyl-3-methylbenzamide] | act as an irritant | inhibit acetylcholinesterase |  | 
2 | CCC(C)OC(=O)N1CCCCC1CCO (centres unmarked) [icaridin] | less irritating than DEET |  | as effective as DEET | toxic to salamander larvae
